Test: Brief thermal stress of amorphous solid (physical stability)
Type: physicochemical
Details: brief thermal stress at 40° C.

C#C[C@]1(O)CC[C@H]2[C@@H]3[C@@H](O)C=C4C[C@@H](O)CC[C@]4(C)[C@H]3CC[C@@]21C [amorphous Compound 1, 17α-ethynyl-androst-5-ene-3β,7β,17β-triol]
solid state form after brief thermal stress: resulted in crystalline material that contains Form I

From patent US9850271B2, “Crystalline solvate forms of a pharmaceutical” (NeurMedix, Inc., priority 2008, dated 2017)
